Experimental data taken from patent publication US10513709B2, “Somatic cell nuclear transfer methods” (priority 2013, dated 2019).

Key:
[1] = system: human oocytes; experiment: Development of human somatic cell nuclear transfer oocytes beyond the cleavage stage; format: cell-based
Method: Oocytes were enucleated using microtubule birefringence (Oosight) as described previously by Noggle et al., 2011. Nuclear transfer was performed by fusion of somatic cells to oocytes using inactivated Sendai virus diluted 1:10 to 1:20 in suspension medium. Fusion was confirmed visually. 1-3 hours post fusion, oocytes were activated using 3 μM ionomycin in Global total for 5 minutes at 37 degrees celsius, followed by culture in 10 μM puromycin, 2 mM 6-DMAP, as well as the histone deacetylase (HDAC) inhibitors scriptaid and nch51 for 4 to 4.5 hours. Activated constructs were cultured in HDAC inhibitor for an additional 10-16 hours, followed by culture in Global total only. Culture was performed in a MINC incubator fed with gas containing 6% CO2, 5% oxygen and 89% nitrogen. Calcium-free medium was used for some of the manipulations resulting in nuclear transfer ES cells.
For some of the experiments described above additional modifications were introduced as described in Tachibana et al., 2013. Caffeine at a 1 mM concentration was added to the incubation medium during enucleation and oocyte fusion. Oocytes were activated using 2-4 pulses of 50 μs width at 2.7 kV/cm in mannitol containing fusion medium using an LF201 pulser (Nepagene), followed by 4 hours of culture in 2 mM 6-DMAP. Activated constructs were cultured in Global total containing 10% FBS and TSA for 12 hours, followed by culture to the blastocysts stage in medium containing 10% FBS.
The derivation of nuclear transfer ES cell lines from BJ fibroblasts at passage 11 was performed using nuclear transfer 30 min prior to the removal of the oocyte genome in the presence of 1 mM caffeine. Derivation of the adult cell NT-ES cell line was performed using somatic cells at passage 8, from a subject with T1D (ID-1018). Oocytes were transported in GMOPSplus containing 1 mM caffeine. Upon completion of the manipulation, oocytes were incubated for 45 min-1 h in calcium-free MCZB, then placed in calcium containing medium for 10 min prior to activation and culture as described above. Oocyte activation was performed within 2 hours post transfer using 4 electrical pulses, followed by incubation in medium containing HDAC inhibitors scriptaid and nch51, in addition to 10 μg/ml puromycin and 2 mM 6-DMAP for 4 hours, and thereafter, medium containing HDAC inhibitor for 15 hours. Culture was performed in a Heracell 150i incubator containing 5% CO2 at 37° C., in Global medium (IVFonline LGGG-050) containing 10% fetal bovine serum. ES cell derivation was conducted in medium containing DMEM/F12 supplemented with 10% KO-SR and 10% FBS, Rock inhibitor Y-27632, thiazovivin, non-essential amino acids, 10 ng/ml bFGF, Glutamax, and beta mercaptoethanol (all reagents from Life Technologies). Upon attachment, trophectoderm cells were ablated using laser pulses using a Lykos laser (Hamilton Thorne). Outgrowths were apparent within 10 days of plating, and were picked when colonies reached a size of about 1 mm in diameter. Passaging was done enzymatically using TrpLE (Life Technologies) and standard ES cell medium (substituting FBS with KO-SR and DMEM/F12 with KO-DMEM) using Rock inhibitor Y-27632 for the first day after plating.

[2] = system: enucleated mouse oocytes; experiment: Chromosome segregation at the first mitosis after nuclear transfer; format: cell-based
From the text: To further investigate the mechanism of genomic instability after somatic cell nuclear transfer, we transferred genomes of somatic and embryonic mouse cells into enucleated mouse oocytes. As a control for our manipulations, we transplanted oocyte genomes from one MII oocyte to another. We first quantified the number of abnormal anaphase figures in unmanipulated oocytes, including bridges, fragments, and missegregating chromosomes. Abnormalities in parthenotes were few, or less than 5 percent at anaphase of the second meiosis and the first mitosis (FIG. 13A). […] Upon transfer of mitotic fibroblast or ES cell genomes into MII oocytes, the frequency of these abnormalities remained unaltered, or 6% and 6.9%. […] Abnormal anaphase figures were further increased when using interphase genomes of either cumulus cells or T cells.
As different cell types are known to differ in their gene expression pattern, we first determined whether gene expression during the first cell cycle was required for a normal chromosome segregation at the first embryonic mitosis. […] As cell-type specific gene expression appeared to be irrelevant to chromosome segregation at the first mitosis, we investigated whether other cell-type specific properties of the genome were of importance. It appeared conceivable that for normal chromosome segregation, the prior duplication of the genome at interphase must also be normal. To distinguish whether the chromosome segregation we observed were due to abnormal spindle attachment to chromosomes or due to structural deficiencies that can arise during DNA replication, we stained anaphases with antibodies recognizing centromeres. […]
To determine whether other parameters known to affect the developmental efficiency after somatic cell nuclear transfer affected the fidelity of segregation at the first mitosis, we investigated the role of the nuclear structure. […] We transferred somatic nuclei within the first hour post activation, and analyzed chromosome segregation at the first mitosis. […]

[3] = system: enucleated human oocytes; experiment: Activation and polar body extrusion after transfer of a mitotic somatic genome; format: cell-based
Method: We next sought to determine the timing and molecular mechanism of these chromosomal abnormalities. We reasoned that if the removal of the oocyte spindle removed essential components, then these defects should be apparent at the second meiotic division. We removed the oocyte spindle-chromosome complex, and transferred the mitotic genome of a somatic cell that had been collected upon treatment with nocodazole and were kept on ice prior to transfer (FIG. 12A). Remarkably, within 1-2 hours post transfer, birefringent spindles were assembled in oocytes and chromosomes were aligned on the metaphase plate (FIGS. 12A, 12B, 12C). Upon artificial activation using a calcium ionophore and puromycin, 16/19 oocytes segregated somatic cell chromatin into a polar body and formed a single pronucleus in the activated oocyte (FIG. 12F-I). And like upon segregation of oocyte chromatin, a midbody formed and the chromosome passenger complex component survivin localized to the midbody (FIG. 12E). To examine the accuracy of chromosome segregation, (pseudo-) polar bodies were biopsied and the karyotype determined using nucleotide polymorphism arrays. […] However, when we analyzed the karyotype of blastomeres using nucleotide arrays, we found a large number of karyotypic abnormalities (FIG. 12I-L). […]

[4] = system: oocytes; details: oocyte activation with puromycin versus 6-dmap; cited from earlier work
[5] = enucleated oocytes, agent used at activation / first 17 hours of embryo culture

O=C(CCCCCN1C(=O)c2cccc3cccc(c23)C1=O)NO [scriptaid, 6-(1,3-Dioxo-1H,3H-benzo[de]isoquinolin-2-yl)-hexanoic acid hydroxyamide]
development after somatic cell nuclear transfer [1, 5]: development to the morula and blastocyst stage at a low frequency
frequency of chromosome segregation errors ([2]; first mitosis): decreased the frequency of chromosome segregation errors

Cn1c(=O)c2c(ncn2C)n(C)c1=O [caffeine]
efficiency and quality of blastocysts ([1]; caffeine also during oocyte transport, calcium omitted from manipulation medium): most efficient and high quality blastocyts
blastocyst development ([1]; electrical pulse for activation and caffeine during oocyte manipulation): 10%

CN(C)c1ncnc2nc[nH]c12 [6-dmap, 6-(dimethylamino)purine]
dividing embryos severely abnormal ([2]; somatic nuclei transferred within first hour after activation and kinase inhibition with 6-dmap): 90%

CC[C@H](C)[C@@H]1NC(=O)CNC(=O)[C@@H]2Cc3c([nH]c4cc(O)ccc34)[S+]([O-])C[C@@H](NC(=O)CNC1=O)C(=O)N[C@@H](CC(N)=O)C(=O)N1C[C@H](O)C[C@H]1C(=O)N[C@@H]([C@@H](C)[C@@H](O)CO)C(=O)N2 (stereo partly drawn) [alpha amanitin]
frequency of normal mitotic figures ([2]; added to culture medium during first cell cycle): did not significantly increase

COc1ccc(C[C@H](N)C(=O)N[C@H]2[C@@H](O)[C@H](n3cnc4c(N(C)C)ncnc43)O[C@@H]2CO)cc1 [puromycin]
oocytes segregating somatic chromatin into a polar body and forming a single pronucleus ([3]; activation with a calcium ionophore and puromycin): 16/19
oocyte activation shown by polar body extrusion ([3]; puromycin for 4 hours without meiotic kinase inhibitor, M-phase somatic genome): efficient polar body extrusion
development after somatic cell nuclear transfer [1, 5]: development still arrested at cleavage stages
development after somatic cell nuclear transfer ([1]; oocyte genome not removed, puromycin for oocyte activation): efficient development to the blastocyst stage
efficiency of parthenogenesis [4]: more efficient
